Measured values: patent US20240043860A1, “NOVEL HYDROXYPHENYLPYRUVATE DIOXYGENASE POLYPEPTIDES AND METHODS OF USE THEREOF” (Syngenta Crop Protection AG, priority 2020, published 2024)
Read-outs that look alike come from different tables or passages of the source.

What was measured:
[1] = tested on: transgenic tobacco plants expressing mutant HPPD SEQ ID NO: 9; test: spray test, herbicidal damage scoring; type: in vivo
Method: Avena sativa HPPD or orthologues and variants thereof, for example SEQ IDs 1-63 and 122-127, were expressed in transgenic tobacco. DNA sequences that encode these polypeptides (optimized for tobacco or, optionally, codon optimized according to a target crop such as soybean) were prepared synthetically. Each sequence was designed to include a 5′ fusion with TMV omega 5′ leader sequence such that they are flanked at the 5′ end with XhoI and at the 3′ end with KpnI to facilitate direct cloning into a suitable binary vector for Agrobacterium-based plant transformation.
In one example, the TMV omega 5′ leader and a HPPD encoding gene of interest is excised using XhoI/KpnI and cloned into similarly digested binary vector pBIN 19 (Bevan, Nucl. Acids Res. (1984) behind a double enhanced 35S promoter ahead of a NOS 3′ transcription terminator and then transformed into E. coli DH5 alpha competent cells. DNA recovered from the E. coli is used to transform Agrobacterium tumefaciens LBA4404, and transformed bacteria are selected on media contain rifampicin and kanamycin. Tobacco tissue is subjected to Agrobacterium-mediated transformation using methods well described in the art or as described herein. For example, a master plate of Agrobacterium tumefaciens containing the HPPD expressing the binary vector is used to inoculate 10 ml LB (L broth) containing 100 mg/l Rifampicin plus 50 mg/l Kanamycin using a single bacterial colony. This is incubated overnight at 28° C. shaking at 200 rpm. This entire overnight culture is used to inoculate a 50 ml volume of LB containing the same antibiotics. Again this is cultured overnight at 28° C. shaking at 200 rpm. […]
Plants are assessed for damage and scored at, for example, 7 and 14 days after treatment (DAT). […]
Plants of events showing the least damage are grown to flowering, then bagged and allowed to self. […] Single copy events amongst the Ti plant lines are identified by their 3:1 segregation ratio (with respect to kanamycin and/or herbicide) and by quantitative RT-PCR. […] HPPD expression levels were monitored by Western analysis. […]

[2] = biological target: HPPD variant AVESA V201 (SEQ ID NO: 8) (Avena sativa, UniProt A0ACD5V6K6, A327R/G411A/I340E/L359M/V218I/V260A); type: biochemical; conditions: AVESA V201, SEQ ID NO: 8
Method: (§1) 25 ul of the overnight cultures were inoculated into fresh 96-deepwell block containing 1 ml Formedium Autoinduction Media (AIM). The AIM cultures were grown for 3h at 37° C. (900rpm) and then transferred to 20° C. overnight (900rpm) to allow protein expression. The overnight cultures were centrifuged and 500 ul of Cellytic B (Sigma Aldrich) was added to resuspend the cell pellets. The coupled HGO assay (Siehl et al, 2014) is used to generate IC50 values for the HPPD variants of interest.
(§2) E. coli BL21 (DE3) cells were transformed with a pET24a vector containing a C-terminally his-tagged Arabidopsis HGO gene, grown and induced overnight as described for the HPPD variants above. The cell pellet was resuspended in phosphate buffered saline at pH 7.4 containing 10% Glycerol, 1mm Tris[2-carboxyethyl] phosphine-HCl (TCEP) plus 30 mM Imidazole and lysed using lysozyme/benzonase. The extract was clarified by low speed centrifugation and purified in the same buffer down a 1 ml His Gravitrap column. The bound HGO was eluted in 0.25M imidazole and the fractions pooled and beaded into liquid nitrogen. All procedures apart from the centrifugation and beading steps were carried out under a nitrogen atmosphere.
(§3) The coupled HGO assay is carried out by adding 10 ul of HPPD extract to a 96-well plate and then adding 40 ul of reaction buffer (50 mM Bis Tris Propane, pH7.0, 25 mM sodium-L-ascorbate, 400μM mercaptoethanol, 50 μM Fe(II)SO4). The plates are left to incubate for 5 minutes on ice. […] 200 ul of HPP/HGO (197 μM hydroxyphenylpyruvic acid, 16 μl/ml Homogentisic Acid Oxidase in reaction buffer as described above) buffer is then added to the well and the reaction is regularly monitored (e.g. every 30 seconds-5 minutes) for absorbance at 330 nm for a given time period (e.g., for between 15-60 minutes). The data can then be used to calculate the IC50 value for each HPPD variant of interest.

[3] = biological target: HPPD variant AVESA V307 (SEQ ID NO: 35) (Avena sativa, UniProt A0ACD5V6K6, A327R/I340E/L359M/P271N/R214G/V218I/V260A); test: biochemical; type: biochemical
Method: as §1, §2, §3

Chain of HPPD variant AVESA V307 (SEQ ID NO: 35) (A0ACD5V6K6 entry or part of it R214G/V218I/V260A/P271N/A327R/I340E/L359M): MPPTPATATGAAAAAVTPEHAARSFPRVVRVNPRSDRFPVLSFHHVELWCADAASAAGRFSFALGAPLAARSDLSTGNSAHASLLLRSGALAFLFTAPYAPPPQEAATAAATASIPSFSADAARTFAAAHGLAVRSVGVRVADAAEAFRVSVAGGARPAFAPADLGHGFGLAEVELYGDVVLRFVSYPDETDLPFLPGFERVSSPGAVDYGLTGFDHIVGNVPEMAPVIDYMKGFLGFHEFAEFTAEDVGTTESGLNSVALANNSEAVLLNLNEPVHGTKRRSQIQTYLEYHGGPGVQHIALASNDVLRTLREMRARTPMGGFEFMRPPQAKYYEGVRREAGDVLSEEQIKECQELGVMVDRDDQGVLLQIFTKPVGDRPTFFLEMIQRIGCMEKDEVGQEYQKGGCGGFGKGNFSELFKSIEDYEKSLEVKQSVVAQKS
Chain of HPPD variant AVESA V201 (SEQ ID NO: 8) (A0ACD5V6K6 entry or part of it V218I/V260A/A327R/I340E/L359M/G411A): as the sequence (A0ACD5V6K6 entry or part of it R214G/V218I/V260A/P271N/A327R/I340E/L359M) above, with G214R, N271P, G411A counted along it

Compound	tolerance ([1]; SEQ ID 9 plants, 100 g/ha (Table 3.4))	tolerance compared to plants expressing SEQ ID 125 ([1]; SEQ ID 9 plants, 200 g/ha (Table 3.4))	IC50 [2]	IC50 ([3]; AVESA V307, SEQ ID NO: 35, read-out: IC50)	damage ([1]; 2000 g/ha, SEQ ID 9 plants compared to plants expressing SEQ IDs 122, 124 or 125)	IC50 [3]
COc1ccc(-n2nc(C)cc(C(=O)C3C(=O)CCCC3=O)c2=O)cc1OC [Herbicide C, dioxopyritrione]	display tolerance	higher tolerance	0.89 µM	< 0.19 µM		
bicyclopyrone			> 500 µM			
Cn1nnnc1NC(=O)c1ccc(C(F)(F)F)nc1-n1cncn1 [Herbicide D, N-(1-methyltetrazol-5-yl)-2-(1,2,4-triazol-1-yl)-6-(trifluoromethyl)pyridine-3-carboxamide]					significantly reduced damage	262 µM
